Test results published in patent publication US20250145608A1, “KRAS DEGRADING COMPOUNDS COMPRISING ANNULATED 2-AMINO-3-CYANO THIOPHENES” (Boehringer Ingelheim Int'l GmbH Corp., priority 2021, published 2025).

Key:
Assay type in all cases: cell-based
[1] = test system: AsPC-1 cells; experiment: AsPC-1 CTG proliferation assay (120 h) (pancreatic cancer, G12D); conditions: Homo sapiens, ASPC1, AsPC-1 proliferation
Procedure: AsPC-1 CTG Proliferation Assay (120 h) (Pancreatic Cancer, G12D)
The CTG assay is designed to measure quantitatively the proliferation of AsPC-1 cells (ATCC […]), using the CellTiter Glow Assay Kit (Promega G7571). Cells are grown in RPMI medium (ATCC) supplemented with Fetal Calf Serum (Life Technologies, Gibco BRL, Cat. No. 10270-106). On “day 0” 2000 AsPC-1 cells are seeded in 60 μL RPMI ATCC+10% FCS+ Penstrep in a 384-well plate, flat and clear bottom (Greiner, PNr. 781091). Cells are then incubated in the plates at 37° C. in a CO2 incubator overnight. On day 1, compounds (10 mM stock in DMSO) are added with the ECHO acoustic liquid handler system (Beckman Coulter), including DMSO controls. Plates are incubated for 120 h, and cell viability is measured using CellTiter-Glo luminescent cell viability reagent (Promega product code G7570). Viability (stated as percent of control) is defined as relative luminescence units RLU of each well divided by the RLU of cells in DMSO controls. IC50 values are determined from viability measurements by non-linear regression using a four-parameter model.

[2] = test system: SK—CO-1 cells; experiment: SK-CO-1 CTG proliferation assay (120 h) (CRC, G12V); conditions: Homo sapiens, SK-CO-1 proliferation
Procedure: SK—CO-1 CTG Proliferation Assay (120 h) (CRC, G12V)
(§1) SK—CO-1 cells (ATCC HTB-39) are dispensed into 384-well plates, flat and clear bottom (Greiner, PNr. 781091) at a density of 500 cells per well in 60 μL EMEM (Sigma M5650)+10% Fetal Calf Serum (HyClone, PNr.: SH30084.03) and incubated at 37° C. in a CO2 incubator overnight. The next day, compounds (10 mM stock in DMSO) are added with the ECHO acoustic liquid handler system (Beckman Coulter), including DMSO controls. Plates are incubated for 120 h, and cell viability is measured using CellTiter-Glo luminescent cell viability reagent (Promega product code G7570). Viability (stated as percent of control) is defined as relative luminescence units RLU of each well divided by the RLU of cells in DMSO controls. IC50 values are determined from viability measurements by non-linear regression using a four-parameter model.

[3] = molecular target: T1, KRAS(G12D) (Homo sapiens, UniProt P01116, G12D); experiment: HiBit degradation assay in GP5d-HiBit-KRAS(G12D) cells (18 h; DC50, Dmax)
T1 construct: introduced immediately downstream of the initiating Methionine codon of the endogenous KRAS locus; host or cells: GP5d-HiBit-KRAS(G12D), a CRISPR knock-in at the endogenous locus
Procedure: A HiBit protein detection tag (amino acid sequence […], Seq ID No 1) was introduced immediately downstream of the initiating Methionine codon of the endogenous KRAS locus (Ensembl gene ID ENSG00000133703.7) of GP5d cells (ECACC Cat. No. 95090715) by CRISPR-based genome engineering using a KRAS(G12D) mutant donor construct encoding the HiBit tag. […] Correct modification of the KRAS locus was assessed by PCR-based genotyping and Sanger sequencing of the isolated PCR products. The resulting cell line is referred to as GP5d-HiBit-KRAS(G12D).
To assess PROTAC-mediated degradation of KRAS(G12D), GP5d-HiBit-KRAS(G12D) cells were seeded at 25000 cells per well in 100 μL Dulbecco's Modified Eagle medium (Sigma cat. no. D6429) supplemented with 10% fetal calf serum into white bottom opaque 96 well plates (Perkin Elmer cat no. 5680). Plates were incubated at 37° C., 5% CO2 in a humidified incubator over night to allow the cells to adhere. […] Plates were further incubated at 37° C. for 18 hours. Following incubation, 100 μL per well Promega Nano-Glo HiBit lytic detection reagent mix (Promega Nano-Glo HiBit Lytic Detection System #N3050), prepared according to the manufacturer's instructions in the kit, were added. To allow for adequate cell lysis, plates were incubated on an orbital shaker for 15 min and further incubated 30 min at room temperature. Upon completion of cell lysis, luminescence was measured using an Envision plate reader using the Ultrasensitive Luminescence Protocol for 96 well plates. Luminescence levels were normalized by the values obtained with DMSO-treated samples and plotted as percent of DMSO control. DC50 values were computed using a four parametric logistic model. Dmax values represent the maximal extent of degradation observed and is stated as percent of control (% Ctrl.) treatments. DC50 and Dmax are reported in Table 64 for representative compounds of the invention.

[4] = test system: NCI-H358 cells; experiment: NCI-H358 CTG proliferation assay (120 h) (NSCLC, G12C); conditions: Homo sapiens, assay 2, read-out: H358 (assay 2) IC50
Procedure: NCI-H358 CTG Proliferation Assay (120 h) (NSCLC, G12C)
NCI-H358 cells (ATCC No. CRL-5807) are dispensed into white bottom opaque 96 well plates (Perkin Elmer cat no. 5680) at a density of 2000 cells per well in 100 μL RPMI-1640 ATCC-Formulation (Gibco #A10491)+10% FCS (fetal calf serum) (assay 1) or into black 384-well plates, flat and clear bottom (Greiner, PNr. 781091) at a density of 200 cells per well in 60 μl RPMI-1640 ATCC-Formulation (Gibco #A10491)+10% FCS (fetal calf serum) (assay 2). […] Compounds (10 mM stock in DMSO) are added at logarithmic dose series using the HP Digital Dispenser D300 (Tecan) (assay 1) or the ECHO acoustic liquid handler system (Beckman Coulter) (assay 2), normalizing for added DMSO and including DMSO controls. For the TO time point measurement, untreated cells are analyzed at the time of compound addition. Plates are incubated for 120 h, and cell viability is measured using CellTiter-Glo luminescent cell viability reagent (Promega product code G7570). Viability (stated as percent of control) is defined as relative luminescence units RLU of each well divided by the RLU of cells in DMSO controls. IC50 values are determined from viability measurements by non-linear regression using a four parameter model.

[5] = test system: LOVO cells; experiment: LOVO CTG proliferation assay (120 h) (CRC, G13D); conditions: Homo sapiens
Procedure: LOVO CTG Proliferation Assay (120 h) (CRC, G13D)
as §1, with “LOVO” for “SK—CO-1”, “CCL-229)” for “HTB-39)”, “1000” for “500”, “DMEM” for “EMEM”, “D6429)+10%” for “M5650)+10%”

[6] = test system: SAS cells; experiment: SAS CTG proliferation assay (120 h) (HNSCC, wt amplified)
Procedure: SAS CTG Proliferation Assay (120 h) (HNSCC, Wt Amplified)
as §1, with “SAS” for “SK—CO-1”, “(JCRB0260)” for “(ATCC HTB-39)”, “300” for “500”, “DMEM:F12 (Gibco 31330-038)+10%” for “EMEM (Sigma M5650)+10%”

T1 sequence (P01116 1-188 isoform P01116-2 G12D): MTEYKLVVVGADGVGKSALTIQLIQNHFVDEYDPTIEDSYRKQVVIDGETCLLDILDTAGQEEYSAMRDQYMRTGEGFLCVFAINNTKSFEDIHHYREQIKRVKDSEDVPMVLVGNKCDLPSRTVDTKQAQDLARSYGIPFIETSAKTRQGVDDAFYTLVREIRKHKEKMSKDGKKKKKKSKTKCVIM

Row | SMILES | IC50 [1] [nM] | IC50 [2] [nM] | DC50 [3] [nM] | Dmax 18 h [3] [% Ctrl] | IC50 [4] [nM] | IC50 [5] [nM] | IC50 [6] [nM]
1 | CC(C)C(C(=O)N1C[C@H](O)C[C@H]1C(=O)NCc1ccc(-c2scnc2CO)cc1)c1cc(OCCCCN2CCCN(c3nccc(-c4noc([C@@]5(C)CCCc6sc(N)c(C#N)c65)n4)n3)[C@@H](C)C2)no1 (some centres unmarked) [I-9] | 470 | 216 | 12.9 | 92 | 288 | 59.4 | 16400
2 | CC(C)C(C(=O)N1C[C@H](O)C[C@H]1C(=O)NCc1ccc(C#N)c(Cl)c1)c1cc(OCCCCN2CCCN(c3nccc(-c4noc([C@@]5(C)CCCc6sc(N)c(C#N)c65)n4)n3)[C@@H](C)C2)no1 (some centres unmarked) [I-18] | 435 | 124 | 4.1 | 89 | 169 | 278 | 3380
3 | Cc1ncsc1-c1ccc([C@H](CO)NC(=O)[C@@H]2C[C@@H](O)CN2C(=O)C(C(C)C)n2cc(OCCCCN3C[C@H](C)N(c4nccc(-c5noc([C@@]6(C)CCCc7sc(N)c(C#N)c76)n5)n4)CCC3(C)C)nn2)cc1 (some centres unmarked) [I-32] | 8330 | 507 | 7.6 | 83 |  | 929 | 9440
4 | COC(=O)[C@H](NC(=O)[C@@H]1C[C@@H](O)CN1C(=O)C(C(C)C)n1cc(OCCCCN2CCCN(c3nccc(-c4noc([C@@]5(C)CCCc6sc(N)c(C#N)c65)n4)n3)[C@@H](C)C2)nn1)c1ccc(-c2scnc2C)cc1 (some centres unmarked) [I-33] | 323 | 1950 | 13.1 | 91 |  | 50 | 84.5
